Test results from patent publication US8497376B2, “Inhibitors of c-fms kinase” (Janssen Pharmaceutica N.V., priority 2007, dated 2013).
Where a name gives a salt, the structure may show the parent alone. Read-outs that look alike come from different tables or passages of the source.

Key:
[1] = test system: mouse bone-marrow derived macrophages; experiment: CSF-1-driven mouse bone-marrow derived macrophages assay (BrDU incorporation); type: cell-based; details: CSF-1-driven proliferation, 30 hrs culture
Protocol: Macrophages were derived by culturing mouse bone marrow in alpha-MEM supplemented with 10% FCS and 50 ng/ml recombinant mouse CSF-1 in bacteriologic dishes. On the sixth day, macrophages were detached from dishes, washed, and resuspended to 0.05 million cells/ml in alpha-MEM containing 10% FCS. One hundred ul of cell suspension were distributed per well into 96 well culture plates. Wells were further supplemented with the addition of 50 ul media containing 15 ng/ml CSF-1, 3 uM Indomethacin, and 3× of a dilution series of test compounds. The cells were cultured for 30 hrs at 37 degrees and 5% CO2. During the final six hours, cultures were supplemented with an additional 30 ul of media containing a 1:500 dilution of bromodeoxyuridine (BrDU). At the end of the culture period, the plates were spun at 1000 RPM for 1 minute and 130 ul of media was removed with a pipet and replaced with 150 ul of fixative solution for 1 hour@room temperature. The fixative was then dispelled from the plates and the plates allowed to air dry. Incorporation of BrDU into the fixed, dried cells was quantified using a specific ELISA.

c-fms = c-fms (Homo sapiens (Human), UniProt P07333); experiment: Autophosphorylation fluorescence polarization competition immunoassay for c-fms inhibition; type: biochemical; details: 10 nM c-fms, 1 mM ATP; average of three independent measurements
Protocol: The assay buffer used was 100 mM 4-(2-hydroxyethyl)piperazine1-ethanesulfonic acid (HEPES), pH 7.5, 1 mM 1,4-dithio-DL-threitol (DTT), 0.01% (v/v) Tween-20. Compounds were diluted in assay buffer containing 4% dimethylsulfoxide (DMSO) just prior to the assay. […] The kinase reaction was initiated by adding 2 μL of 5 mM ATP (Sigma) in assay buffer. The final concentrations in the assay were 10 nM c-fms, 1 mM ATP, 5 mM MgCl2, 2% DMSO. Control reactions were ran in each plate: in positive and negative control wells, assay buffer (made 4% in DMSO) was substituted for the compound; in addition, positive control wells received 1.2 μL of 50 mM ethylenediaminetetraaceticacid (EDTA). The plates were incubated at room temperature for 45 min. At the end of the incubation, the reaction was quenched with 1.2 μL of 50 mM EDTA (EDTA was not added to the positive control wells at this point; see above). Following a 5-min incubation, each well received 10 μL of a 1:1:3 mixture of anti-phosphotyrosine antibody, 10×, PTK green tracer, 10× (vortexed), FP dilution buffer, respectively (all from PanVera, cat. # P2837). The plate was covered, incubated for 30 min at room temperature and the fluorescence polarization was read on the Analyst. The instrument settings were: 485 nm excitation filter; 530 nm emission filter; Z height: middle of well; G factor: 0.93. […] The reported IC50 values are averages of three independent measurements.

Sequence of c-fms (P07333 20-972): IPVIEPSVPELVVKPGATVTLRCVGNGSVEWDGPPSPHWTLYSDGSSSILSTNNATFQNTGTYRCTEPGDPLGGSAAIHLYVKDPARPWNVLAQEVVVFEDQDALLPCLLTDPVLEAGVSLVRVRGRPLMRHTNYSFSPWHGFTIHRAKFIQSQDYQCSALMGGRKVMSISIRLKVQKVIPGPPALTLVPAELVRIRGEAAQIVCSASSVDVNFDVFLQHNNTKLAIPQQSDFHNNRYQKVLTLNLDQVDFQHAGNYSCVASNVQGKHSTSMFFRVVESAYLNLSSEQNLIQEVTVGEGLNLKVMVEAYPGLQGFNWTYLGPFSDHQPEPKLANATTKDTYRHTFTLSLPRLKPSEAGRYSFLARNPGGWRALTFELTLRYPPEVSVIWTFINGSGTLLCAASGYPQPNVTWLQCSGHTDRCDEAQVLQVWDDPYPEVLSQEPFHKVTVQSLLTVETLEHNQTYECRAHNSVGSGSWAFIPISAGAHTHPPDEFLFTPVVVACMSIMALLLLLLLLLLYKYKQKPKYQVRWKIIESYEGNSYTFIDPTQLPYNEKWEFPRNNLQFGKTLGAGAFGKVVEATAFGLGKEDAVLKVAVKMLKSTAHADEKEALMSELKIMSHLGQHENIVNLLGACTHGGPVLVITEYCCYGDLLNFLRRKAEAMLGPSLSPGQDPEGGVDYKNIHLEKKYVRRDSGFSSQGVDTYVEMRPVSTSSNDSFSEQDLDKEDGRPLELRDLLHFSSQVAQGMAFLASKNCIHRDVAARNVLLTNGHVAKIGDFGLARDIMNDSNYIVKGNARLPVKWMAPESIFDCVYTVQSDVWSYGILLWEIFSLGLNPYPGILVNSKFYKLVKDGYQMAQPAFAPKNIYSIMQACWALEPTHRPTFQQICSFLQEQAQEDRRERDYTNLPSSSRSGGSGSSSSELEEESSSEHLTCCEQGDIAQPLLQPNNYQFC

Structure (SMILES)	IC50 (c-fms)	IC50 ([1]; Mus musculus, BMDM)	IC50 ([1]; read-out: BMDM IC50)
C[C@@H]1C2CC[C@@H](O2)[C@H](C)[C@@]1(O)c1ccc(NC(=O)c2nc(C#N)c[nH]2)c(C2=CCC(C)(C)CC2)c1 [Example 29, 4-Cyano-N-(2-(4,4dimethylcyclohex-1-enyl)-4-[(3-exo)-3-hydroxy-(2-endo,4endo-dimethyl)-1,5-dimethyl-8-oxabicyclo[3.2.1]octan-3-yl)pheny]-1H-imidazole-2-carboxamide]	14 nM	88 nM	
CC1(C)CC=C(c2cc(C3=C[C@@H]4C=C[C@H](C3)O4)ccc2NC(=O)c2ncc(C#N)[nH]2)CC1 [Example 26, N-(4-(8-oxabicyclo[3.2.1]octa-2,6-dien-3-yl)-2-(4,4-dimethylcyclohex-1-enyl)phenyl)-4-cyano-1H-imidazole-2-carboxamide (A) and N-(4-(8-oxabicyclo[3.2.1]octa-3,6-dien-3-yl)-2-(4,4dimethylcyclohex-1-enyl)phenyl)-4cyano-1H-imidazole-2-carboxamide (B)]	7.1 nM		59 nM
CC1(C)CC=C(c2cc([C@]3(O)C[C@@]4(CO)C=C[C@@](CO)(C3)O4)ccc2NC(=O)c2nc(C#N)c[nH]2)CC1 [Example 2, 4-Cyano-1H-imidazole-2-carboxylic acid[2-(4,4-dimethyl-cyclohex-1-enyl)-4-((3-exo)-3-hydroxy-1,5-bis-hydroxymethyl-8-oxa-bicyclo[3.2.1]oct-6-en-3-yl)-phenyl]-amide]		37 nM	
C[C@@H]1C2(C)C=C[C@@](C)(O2)[C@H](C)[C@@]1(O)c1ccc(NC(=O)c2nc(C#N)c[nH]2)c(C2=CCC(C)(C)CC2)c1 [Example 30, 4-Cyano-N-(2-(4,4dimethylcyclohex-1-enyl)-4-[(3-exo)-3-hydroxy-(2-endo,4-endo-dimethyl)-1,5-dimethyl-8-oxabicyclo[3.2.1]oct-6-en-3-yl)phenyl)-1H-imidazole-2-carboxamide]	99 nM		

Second part, led by results:

IC50 (c-fms)	Structure (SMILES)	IC50 ([1]; Mus musculus, BMDM)	IC50 ([1]; read-out: BMDM IC50)
0.72 nM	CC1(C)CC=C(c2nc(C3C[C@@]4(C)O[C@@](C)(C3)[C@H](O)[C@@H]4O)ccc2NC(=O)c2nc(C#N)c[nH]2)CC1 (stereo partly drawn) [Example 18, 4-Cyano-1H-imidazole-2-carboxylic acid[6-[(3-exo)-(6-exo,7-exo-dihydroxy-1,5-dimethyl-8-oxa-bicyclo[3.2.1]oct-3-yl)-2-(4,4-dimethyl-cyclohex-1-enyl)-pyridin-3-yl]-amidetrifluoroacetic acid saft and 4-Cyano-1H-imidazole-2-carboxylic acid[6-[(3-endo)-(6-exo,7-exo-dihydroxy-1,5-dimethyl-8-oxa-bicyclo[3.2.1]oct-3-yl)-2-(4,4-dimethyl-cyclohex-1-enyl)-pyridin-3-yl]-amidetrifluoroacetic acid salt]	10 nM	
1.4 nM	CC1(C)CC(c2ccc(NC(=O)c3nc(C#N)c[nH]3)c(C3=CCCCC3)n2)CC(C)(C)O1 [Example 16, 4-Cyano-1H-imidazole-2-carboxylic acid[2-cyclohex-1-enyl-6-(2,2,6,6-tetramethyl-tetrahydro-pyran-4-yl)-pyridin-3-yl]-amide]	8.2 nM	
0.66 nM	CC1(C)CC=C(c2cc([C@@]3(O)CC4C=C[C@H](C3)O4)ccc2NC(=O)c2nc(C#N)c[nH]2)CC1 [Example 27, 4-Cyano-N-(2-(4,4-dimethylcyclohex-1-enyl)-4-((3-exo)-3-hydroxy-8-oxabicyclo[3.2.1]oct-6-en-3-yl)phenyl)-1H-imidazole-2-carboxamide]	6.9 nM	
